Data as given in patent publication US20170152239A1, “BENZAMIDE AND HETEROBENZAMIDE COMPOUNDS” (PFIZER INC., priority 2012, published 2017).

These molecules were tested against WT EZH2 (EZH2 4 protein complex: EZH2, EED, SUZ12, RbAp48) (Homo sapiens, UniProt O75530+Q09028+Q15022+Q15910) (assay: WT EZH2 nucleosome assay). Conditions: nucleosome assay, 5 nM EZH2 4-protein complex, 1.5 μM SAM; read-out: WT EZH2 IC50.
Type: biochemical
Protocol: Nucleosome Assay Protocol:
A. Compound preparation • 1. Prepare 10 mM stock solutions in 100% DMSO from solid material • 2. Serial dilute 10 mM compound stocks either 2 or 3-fold in 100% DMSO to generate compounds for 11 point dose response
B. Reagent preparation • 1. Prepare 1× assay buffer containing 100 mM Tris pH 8.5, 4 mM DTT and 0.01% Tween-20 • 2. Dilute purified HeLA oligonucleosomes and recombinant histone H1 (New England Biolabs) in assay buffer to 1.67×. • 3. Dilute EZH2 4 protein complex (EZH2, EED, SUZ12, RbAp48) to 3.5× in assay buffer • 4. Prepare 10×^3H SAM solution in assay buffer using 0.94 μCi/well of radioactive SAM (Perkin Elmer) and sufficient non-labeled SAM (Sigma) for 1.5 μM final concentration. • 5. Dilute TCA to 20% in DI water
C. Enzyme reaction • 1. Final reaction conditions are 5 nM EZH2 4-protein complex, 1.5 μM SAM, 25 μg/mL oligonucleosomes, 50 nM rH1 in a 50 μl reaction volume. • 2. Add 1 μl of diluted compound to the assay plate (96-well V-bottom polypropylene plates) or 1 μl of DMSO for control wells. • 3. Add 30 μl of nucleosomes to the assay plate • 4. Add 14 μl of EZH2 4 protein complex to the assay plate • 5. Add 5 μl of ^3H SAM to start the reaction. • 6. Stop the reaction after 60 minutes with the addition of 100 μl of 20% TCA • 7. Transfer 150 μl of quenched reaction into a prepared filterplate (Millipore #MSIPN4B10) • 8. Apply vacuum to the filterplate to filter the reaction mix through the membrane. • 9. Wash the filterplate with 8×200 μl of PBS, blot dry and dry in an oven for 30 minutes • 10. Add 50 μl of microscint-20 scintillation fluid (Perkin Elmer) to each well, wait 30 minutes and count on a liquid scintillation counter.
D. Data analysis • 1. IC50 values were determined by fitting the data to a 4-parameter IC50 equation using proprietary curve fitting software.
Wild type (WT) EZH2% Effect at 20 μM and IC50 values (μM) generated in WT EZH2 or EZH2PRC2 mutant Y641N nucleosome assays are provided in Table 3 below. A blank entry in the table indicates the data was not generated in that assay.

Chain of WT EZH2 (EZH2 4 protein complex: EZH2, EED, SUZ12, RbAp48) (Q15910 whole entry): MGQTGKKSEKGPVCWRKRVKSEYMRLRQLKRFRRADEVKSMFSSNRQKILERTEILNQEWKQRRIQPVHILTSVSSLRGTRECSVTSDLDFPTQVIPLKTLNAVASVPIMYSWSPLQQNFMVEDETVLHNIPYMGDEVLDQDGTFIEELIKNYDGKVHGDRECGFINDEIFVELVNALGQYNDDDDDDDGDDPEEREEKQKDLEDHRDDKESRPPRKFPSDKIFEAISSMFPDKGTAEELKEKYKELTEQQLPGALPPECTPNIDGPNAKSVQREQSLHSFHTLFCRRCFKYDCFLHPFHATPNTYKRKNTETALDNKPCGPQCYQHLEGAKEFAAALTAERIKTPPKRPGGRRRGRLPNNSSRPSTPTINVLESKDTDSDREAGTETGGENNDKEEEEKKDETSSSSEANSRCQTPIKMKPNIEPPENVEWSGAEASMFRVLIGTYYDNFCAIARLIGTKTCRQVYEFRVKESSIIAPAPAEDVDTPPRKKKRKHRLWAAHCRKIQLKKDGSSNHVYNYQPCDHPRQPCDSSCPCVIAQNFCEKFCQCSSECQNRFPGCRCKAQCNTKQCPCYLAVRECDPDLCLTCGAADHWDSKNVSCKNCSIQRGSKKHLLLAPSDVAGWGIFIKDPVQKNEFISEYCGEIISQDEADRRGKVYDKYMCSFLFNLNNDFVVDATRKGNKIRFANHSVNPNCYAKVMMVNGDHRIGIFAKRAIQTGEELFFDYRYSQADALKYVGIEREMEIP
Chain of WT EZH2 (EZH2 4 protein complex: EZH2, EED, SUZ12, RbAp48) (O75530 whole entry partner): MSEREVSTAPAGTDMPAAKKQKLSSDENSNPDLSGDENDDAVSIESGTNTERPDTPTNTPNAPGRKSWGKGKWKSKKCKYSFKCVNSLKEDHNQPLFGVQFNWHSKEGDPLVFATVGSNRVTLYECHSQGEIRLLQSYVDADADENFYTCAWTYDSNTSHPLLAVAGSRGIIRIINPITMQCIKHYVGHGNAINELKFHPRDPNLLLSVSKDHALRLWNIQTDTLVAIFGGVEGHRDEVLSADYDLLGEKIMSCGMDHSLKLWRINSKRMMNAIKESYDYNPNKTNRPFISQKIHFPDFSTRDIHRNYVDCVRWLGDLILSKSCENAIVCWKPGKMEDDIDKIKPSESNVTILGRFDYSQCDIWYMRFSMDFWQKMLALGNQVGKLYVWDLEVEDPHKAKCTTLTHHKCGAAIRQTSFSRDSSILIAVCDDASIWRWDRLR
Chain of WT EZH2 (EZH2 4 protein complex: EZH2, EED, SUZ12, RbAp48) (Q15022 whole entry partner): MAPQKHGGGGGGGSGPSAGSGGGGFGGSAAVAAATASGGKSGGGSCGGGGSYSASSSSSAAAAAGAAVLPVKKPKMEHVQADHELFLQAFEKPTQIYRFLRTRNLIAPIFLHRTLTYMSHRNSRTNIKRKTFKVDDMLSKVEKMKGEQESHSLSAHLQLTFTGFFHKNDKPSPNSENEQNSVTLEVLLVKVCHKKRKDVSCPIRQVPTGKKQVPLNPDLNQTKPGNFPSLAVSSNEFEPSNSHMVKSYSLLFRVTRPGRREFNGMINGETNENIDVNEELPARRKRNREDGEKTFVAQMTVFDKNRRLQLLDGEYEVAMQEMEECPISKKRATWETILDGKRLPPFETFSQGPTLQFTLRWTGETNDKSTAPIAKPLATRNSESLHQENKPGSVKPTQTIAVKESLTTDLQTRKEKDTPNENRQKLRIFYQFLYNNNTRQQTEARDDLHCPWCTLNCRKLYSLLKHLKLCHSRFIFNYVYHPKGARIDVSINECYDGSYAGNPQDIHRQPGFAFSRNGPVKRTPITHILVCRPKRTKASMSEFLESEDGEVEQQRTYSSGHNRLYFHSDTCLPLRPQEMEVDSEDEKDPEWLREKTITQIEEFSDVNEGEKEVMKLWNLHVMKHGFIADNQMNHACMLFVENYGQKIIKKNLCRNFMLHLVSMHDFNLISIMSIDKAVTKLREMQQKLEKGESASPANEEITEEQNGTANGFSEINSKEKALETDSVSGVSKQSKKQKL
Chain of WT EZH2 (EZH2 4 protein complex: EZH2, EED, SUZ12, RbAp48) (Q09028 whole entry partner): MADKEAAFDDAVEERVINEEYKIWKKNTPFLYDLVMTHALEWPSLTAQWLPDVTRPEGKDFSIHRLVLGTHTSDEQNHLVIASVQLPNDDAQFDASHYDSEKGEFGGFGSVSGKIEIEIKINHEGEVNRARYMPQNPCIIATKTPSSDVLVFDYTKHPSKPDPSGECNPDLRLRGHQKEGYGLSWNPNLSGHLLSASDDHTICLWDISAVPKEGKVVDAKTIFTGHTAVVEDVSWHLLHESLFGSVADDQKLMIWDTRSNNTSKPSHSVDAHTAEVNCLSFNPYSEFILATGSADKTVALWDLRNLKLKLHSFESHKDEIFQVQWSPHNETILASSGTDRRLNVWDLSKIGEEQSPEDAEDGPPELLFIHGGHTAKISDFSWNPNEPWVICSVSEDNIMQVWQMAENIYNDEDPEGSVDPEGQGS

**Q.** With `Cc1cc(C)c(CNC(=O)c2cccc(-c3c(C)cnn3C)c2C)c(=O)[nH]1` [Example 1, N-[(4,6-dimethyl-2-oxo-1,2-dihydropyridin-3-yl)methyl]-3-(1,4-dimethyl-1H-pyrazol-5-yl)-2-methylbenzamide] as the molecule, how does the IC50 read?
**A.** Its IC50 is 470 nM.

**Q.** `Cc1cc(C)c(CNC(=O)c2cccc(-c3c(C)n[nH]c3C)c2C)c(=O)[nH]1` [Example 3, N-[(4,6-dimethyl-2-oxo-1,2-dihydropyridin-3-yl)methyl]-3-(3,5-dimethyl-1H-pyrazol-4-yl)-2-methylbenzamide] was tested. Which IC50 did it give?
**A.** Its IC50 is 920 nM.

**Q.** How did the IC50 turn out when `Cc1cc(C)c(CNC(=O)c2cccc(-c3c(C)ncn3C)c2C)c(=O)[nH]1` [Example 4, 3-(1,4-dimethyl-1H-imidazol-5-yl)-N-[(4,6-dimethyl-2-oxo-1,2-dihydropyridin-3-yl)methyl]-2-methylbenzamide] was run?
**A.** The IC50 was 230 nM.

**Q.** With `Cc1cc(C)c(CNC(=O)c2cc(Cl)cc(-c3c(C)cnn3C)c2C)c(=O)[nH]1` [Example 7, 5-chloro-N-[(4,6-dimethyl-2-oxo-1,2-dihydropyridin-3-yl)methyl]-3-(1,4-dimethyl-1H-pyrazol-5-yl)-2-methylbenzamide] as the molecule, how does the IC50 read?
**A.** Its IC50 is 220 nM.

**Q.** Which IC50 does the source give for `CCCc1cc(C)[nH]c(=O)c1CNC(=O)c1cc(Cl)cc(-c2ccnn2C)c1C` [Example 8, 5-chloro-2-methyl-N-[(6-methyl-2-oxo-4-propyl-1,2-dihydropyridin-3-yl)methyl]-3-(1-methyl-1H-pyrazol-5-yl)benzamide] here?
**A.** Its IC50 is 880 nM.

**Q.** With `Cc1cc(C)c(CNC(=O)c2cccc(-c3ccnn3C)c2Cl)c(=O)[nH]1` [Example 9, 2-chloro-N-[(4,6-dimethyl-2-oxo-1,2-dihydropyridin-3-yl)methyl]-3-(1-methyl-1H-pyrazol-5-yl)benzamide] as the molecule, how does the IC50 read?
**A.** The IC50 was 700 nM.

**Q.** With `Cc1cc(C)c(CNC(=O)c2cccc(-c3c(Cl)cnn3C)c2C)c(=O)[nH]1` [Example 10, 3-(4-chloro-1-methyl-1H-pyrazol-5-yl)-N-[(4,6-dimethyl-2-oxo-1,2-dihydropyridin-3-yl)methyl]-2-methylbenzamide] as the molecule, how does the IC50 read?
**A.** The IC50 was 380 nM.

**Q.** How did the IC50 turn out when `Cc1cc(C)c(CNC(=O)c2cccc(-c3c(F)cnn3C)c2C)c(=O)[nH]1` [Example 11, N-[(4,6-dimethyl-2-oxo-1,2-dihydropyridin-3-yl)methyl]-3-(4-fluoro-1-methyl-1H-pyrazol-5-yl)-2-methylbenzamide] was run?
**A.** Its IC50 is 360 nM.

**Q.** How did the IC50 turn out when `CCn1ncc(C)c1-c1cccc(C(=O)NCc2c(C)cc(C)[nH]c2=O)c1C` [Example 12, N-[(4,6-dimethyl-2-oxo-1,2-dihydropyridin-3-yl)methyl]-3-(1-ethyl-4-methyl-1H-pyrazol-5-yl)-2-methylbenzamide] was run?
**A.** The IC50 was 110 nM.

**Q.** How did the IC50 turn out when `Cc1cc(C)c(CNC(=O)c2cc(-c3cncnc3)cc(-c3ccnn3C)c2C)c(=O)[nH]1` [Example 17, N-[(4,6-dimethyl-2-oxo-1,2-dihydropyridin-3-yl)methyl]-2-methyl-3-(1-methyl-1H-pyrazol-5-yl)-5-pyrimidin-5-ylbenzamide] was run?
**A.** The IC50 was 160 nM.

**Q.** How did the IC50 turn out when `Cc1cc(C)c(CNC(=O)c2cc(-c3cnn(C)c3)cc(-c3ccnn3C)c2C)c(=O)[nH]1` [Example 18, N-[(4,6-dimethyl-2-oxo-1,2-dihydropyridin-3-yl)methyl]-2-methyl-5-(1-methyl-1H-pyrazol-4-yl)-3-(1-methyl-1H-pyrazol-5-yl)benzamide] was run?
**A.** Its IC50 is 140 nM.

**Q.** With `Cc1cc(C)c(CNC(=O)c2cc(-c3ccc(N)nc3)cc(-c3ccnn3C)c2C)c(=O)[nH]1` [Example 19, 5-(6-aminopyridin-3-yl)-N-[(4,6-dimethyl-2-oxo-1,2-dihydropyridin-3-yl)methyl]-2-methyl-3-(1-methyl-1H-pyrazol-5-yl)benzamide] as the molecule, how does the IC50 read?
**A.** Its IC50 is 41 nM.

**Q.** How did the IC50 turn out when `Cc1cc(C)c(CNC(=O)c2cc(C3=CCOCC3)cc(-c3ccnn3C)c2C)c(=O)[nH]1` [Example 20, 5-(3,6-dihydro-2H-pyran-4-yl)-N-[(4,6-dimethyl-2-oxo-1,2-dihydropyridin-3-yl)methyl]-2-methyl-3-(1-methyl-1H-pyrazol-5-yl)benzamide] was run?
**A.** Its IC50 is 190 nM.

**Q.** With `Cc1cc(C)c(CNC(=O)c2cc(-c3cnc(N4CCOCC4)nc3)cc(-c3c(C)cnn3C)c2C)c(=O)[nH]1` [Example 21, N-[(4,6-dimethyl-2-oxo-1,2-dihydropyridin-3-yl)methyl]-3-(1,4-dimethyl-1H-pyrazol-5-yl)-2-methyl-5-(2-morpholin-4-ylpyrimidin-5-yl)benzamide] as the molecule, how does the IC50 read?
**A.** The IC50 was 19 nM.

**Q.** For `Cc1cc(C)c(CNC(=O)c2cc(-c3cnc(N4C5CCC4COC5)nc3)cc(-c3c(C)cnn3C)c2C)c(=O)[nH]1` [Example 23, N-[(4,6-dimethyl-2-oxo-1,2-dihydropyridin-3-yl)methyl]-3-(1,4-dimethyl-1H-pyrazol-5-yl)-2-methyl-5-{2-[3-oxa-8-azabicyclo[3.2.1]oct-8-yl]pyrimidin-5-yl}benzamide], which IC50 is on record?
**A.** The IC50 was 15 nM.

**Q.** Which IC50 does the source give for `COc1ncc(-c2cc(C(=O)NCc3c(C)cc(C)[nH]c3=O)c(C)c(-c3c(C)cnn3C)c2)cn1` [Example 25, N-[(4,6-dimethyl-2-oxo-1,2-dihydropyridin-3-yl)methyl]-3-(1,4-dimethyl-1H-pyrazol-5-yl)-5-(2-methoxypyrimidin-5-yl)-2-methylbenzamide] here?
**A.** Its IC50 is 160 nM.

**Q.** With `Cc1cc(C)c(CNC(=O)c2cc(Cl)cc(-n3c(C)cnc3C)c2C)c(=O)[nH]1` [Example 28, 5-chloro-3-(2,5-dimethyl-1H-imidazol-1-yl)-N-[(4,6-dimethyl-2-oxo-1,2-dihydropyridin-3-yl)methyl]-2-methylbenzamide] as the molecule, how does the IC50 read?
**A.** The IC50 was 260 nM.

**Q.** Which IC50 does the source give for `Cc1cc(C)c(CNC(=O)c2cc(Cl)cc(-n3ccnc3C)c2C)c(=O)[nH]1` [Example 29, 5-chloro-N-[(4,6-dimethyl-2-oxo-1,2-dihydropyridin-3-yl)methyl]-2-methyl-3-(2-methyl-1H-imidazol-1-yl)benzamide] here?
**A.** The IC50 was 710 nM.

**Q.** How did the IC50 turn out when `Cc1cc(C)c(CNC(=O)c2cc(C#N)cc(-c3c(C)cnn3C)c2C)c(=O)[nH]1` [Example 30, 5-cyano-N-[(4,6-dimethyl-2-oxo-1,2-dihydropyridin-3-yl)methyl]-3-(1,4-dimethyl-1H-pyrazol-5-yl)-2-methylbenzamide] was run?
**A.** The IC50 was 540 nM.

**Q.** How did the IC50 turn out when `Cc1cc(C)c(CNC(=O)c2nc(-c3ccc(N)nc3)nc(-c3ccnn3C)c2C)c(=O)[nH]1` [Example 34, 2-(6-aminopyridin-3-yl)-N-[(4,6-dimethyl-2-oxo-1,2-dihydropyridin-3-yl)methyl]-5-methyl-6-(1-methyl-1H-pyrazol-5-yl)pyrimidine-4-carboxamide] was run?
**A.** Its IC50 is 940 nM.

**Q.** `Cc1cc(C)c(CNC(=O)c2cc(F)cc(-c3c(C)cnn3C)c2C)c(=O)[nH]1` [Example 38, N-[(4,6-dimethyl-2-oxo-1,2-dihydropyridin-3-yl)methyl]-3-(1,4-dimethyl-1H-pyrazol-5-yl)-5-fluoro-2-methylbenz-amide] was tested. Which IC50 did it give?
**A.** The IC50 was 710 nM.

**Q.** How did the IC50 turn out when `CCc1cnn(C)c1-c1cccc(C(=O)NCc2c(C)cc(C)[nH]c2=O)c1C` [Example 39, N-[(4,6-dimethyl-2-oxo-1,2-dihydropyridin-3-yl)methyl]-3-(4-ethyl-1-methyl-1H-pyrazol-5-yl)-2-methylbenz-amide] was run?
**A.** Its IC50 is 870 nM.

**Q.** How did the IC50 turn out when `Cc1cc(C)c(CNC(=O)c2nc(Cl)nc(N3C4CCC3CC4)c2C)c(=O)[nH]1` [Example 40, 6-(7-azabicyclo[2.2.1]hept-7-yl)-2-chloro-N-[(4,6-dimethyl-2-oxo-1,2-dihydropyridin-3-yl)methyl]-5-methylpyrimi-dine-4-carboxamide] was run?
**A.** Its IC50 is 1030 nM.

**Q.** For `Cc1cc(C)c(CNC(=O)c2cc(C3=CCOCC3)cc(C3=CCOCC3)c2C)c(=O)[nH]1` [Example 42, 3,5-di-3,6-dihydro-2H-pyran-4-yl-N-[(4,6-dimethyl-2-oxo-1,2-dihydropyridin-3-yl)methyl]-2-methylbenz-amide], which IC50 is on record?
**A.** Its IC50 is 1120 nM.

**Q.** `Cc1cc(C)c(CNC(=O)c2nc(N3CCC(N)CC3)nc(-c3ccnn3C)c2C)c(=O)[nH]1` [Example 43, 2-(4-aminopiperidin-1-yl)-N-[(4,6-dimethyl-2-oxo-1,2-dihydropyridin-3-yl)methyl]-5-methyl-6-(1-methyl-1H-pyrazol-5-yl)pyrimidine-4-carboxamide] was tested. Which IC50 did it give?
**A.** The IC50 was 1340 nM.

**Q.** `Cc1cc(C)c(CNC(=O)c2nc(-c3cncnc3)nc(N3CCC[C@@H]3C)c2C)c(=O)[nH]1` [Example 44, N-[(4,6-dimethyl-2-oxo-1,2-dihydropyridin-3-yl)methyl]-5-methyl-6-[(2S)-2-methylpyrrolidin-1-yl]-2,5′-bipyrimidine-4-carboxamide] was tested. Which IC50 did it give?
**A.** Its IC50 is 1410 nM.

**Q.** Which IC50 does the source give for `Cc1cc(C)c(CNC(=O)c2nc(-c3ccc(N)nc3)nc(N3CCC[C@@H]3C)c2C)c(=O)[nH]1` [Example 45, 2-(6-aminopyridin-3-yl)-N-[(4,6-dimethyl-2-oxo-1,2-dihydropyridin-3-yl)methyl]-5-methyl-6-[(2S)-2-methylpyrrolidin-1-yl]pyrimidine-4-carboxamide] here?
**A.** Its IC50 is 1530 nM.
